Values of other authors as cited in US5922837A, “Antiprotozoal cyclic tetrapeptides” (Merck & Co., Inc., priority 1997, dated 1999).

Columns and labels:
[1] = tested on: mammalian histone deacetylase
[2] = tested on: partially purified yeast histone deacetylase
[3] = tested on: murine erythroleukemia cells
[4] = tested on: sis-transformed fibroblast cells
[5] = tested on: v-sis-transformed NIH3T3 cells

Row | Compound | type of inhibition of mammalian histone deacetylase [1] | inhibition of partially purified yeast histone deacetylase [2] | anti-trichomonal activity (trichomonal) | cell differentiating activity [3] | induction of phenotypic reversion [4] | morphological reversion [5]
1 | CC(/C=C/C(=O)NO)=C\[C@@H](C)C(=O)c1ccc(N(C)C)cc1 [trichostatin A] | reversible | inhibit | anti-trichomonal activity | cell differentiating activity | ability to induce phenotypic reversion | –
2 | trapoxin A | irreversible | – | – | – | – | induces morphological reversion
